The results in this text go back to ChEMBL document CHEMBL1139709, “6-Hydroxy- and 6-methoxy-beta-carbolines as acetyl- and butyrylcholinesterase inhibitors” (Bioorg Med Chem Lett, 2006).

Assay [1] addresses Acetylcholinesterase (Homo sapiens, UniProt P22303). Nature of the assay: Inhibition of AChE.
For assay [2], the target named is Cholinesterase (Homo sapiens, UniProt P06276). Nature of the assay: Inhibition of BChE.
Sequence of Cholinesterase (P06276 whole entry): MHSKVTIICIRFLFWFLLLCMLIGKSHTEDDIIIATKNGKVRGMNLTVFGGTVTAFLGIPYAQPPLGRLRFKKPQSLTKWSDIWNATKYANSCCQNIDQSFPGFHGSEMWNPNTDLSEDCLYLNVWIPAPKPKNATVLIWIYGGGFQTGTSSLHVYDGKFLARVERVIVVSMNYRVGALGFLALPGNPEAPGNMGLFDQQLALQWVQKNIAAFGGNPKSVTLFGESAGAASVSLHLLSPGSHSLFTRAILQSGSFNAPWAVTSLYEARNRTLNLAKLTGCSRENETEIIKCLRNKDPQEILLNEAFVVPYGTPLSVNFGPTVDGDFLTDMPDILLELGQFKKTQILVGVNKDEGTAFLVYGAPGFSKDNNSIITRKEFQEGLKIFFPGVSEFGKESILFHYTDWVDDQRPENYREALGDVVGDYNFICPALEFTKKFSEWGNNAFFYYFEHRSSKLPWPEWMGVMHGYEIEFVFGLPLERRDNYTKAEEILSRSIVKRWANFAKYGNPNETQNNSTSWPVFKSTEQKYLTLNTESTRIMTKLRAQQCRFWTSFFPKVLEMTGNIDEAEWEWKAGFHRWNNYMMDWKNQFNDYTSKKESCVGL

Sequence of Acetylcholinesterase (P22303 whole entry): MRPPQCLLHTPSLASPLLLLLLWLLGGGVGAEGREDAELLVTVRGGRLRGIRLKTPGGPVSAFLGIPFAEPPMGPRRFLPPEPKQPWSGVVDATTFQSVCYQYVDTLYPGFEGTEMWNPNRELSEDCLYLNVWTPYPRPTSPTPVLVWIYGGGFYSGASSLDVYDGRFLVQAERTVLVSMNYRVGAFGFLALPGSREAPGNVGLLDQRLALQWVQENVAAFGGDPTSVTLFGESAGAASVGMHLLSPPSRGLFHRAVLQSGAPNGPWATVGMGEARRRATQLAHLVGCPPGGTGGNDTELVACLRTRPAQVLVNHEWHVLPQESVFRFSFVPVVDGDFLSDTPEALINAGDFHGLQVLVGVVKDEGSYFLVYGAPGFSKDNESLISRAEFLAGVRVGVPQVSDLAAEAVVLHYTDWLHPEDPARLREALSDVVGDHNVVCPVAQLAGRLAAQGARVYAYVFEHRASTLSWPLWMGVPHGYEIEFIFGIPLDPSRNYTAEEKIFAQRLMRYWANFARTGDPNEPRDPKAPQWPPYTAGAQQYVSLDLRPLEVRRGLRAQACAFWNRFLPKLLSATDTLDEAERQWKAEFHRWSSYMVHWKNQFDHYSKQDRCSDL

Usually IC50 stands for the concentration that inhibits the measured activity by half. For `Cc1nccc2c3cc(O)ccc3n(C)c12`, the IC50 in assay [1] (read-out: IC50) and in assay [2] (read-out: IC50) was greater than 10 µM each time.

As for `C[n+]1ccc2c(c1)[nH]c1ccc(O)cc12`, the IC50 is 4.2 µM in assay [1] (read-out: IC50) and 8.7 µM in assay [2] (read-out: IC50).

For the compound `COc1ccc2c(c1)c1cc[n+](C)c(C)c1n2C`, the IC50 in assay [1] (read-out: IC50) and in assay [2] (read-out: IC50) was greater than 10 µM each time.

As for `COc1ccc2c(c1)c1ccncc1n2C`, the IC50 in assay [1] (read-out: IC50) and in assay [2] (read-out: IC50) was greater than 10 µM each time.

On to `COc1ccc2[nH]c3c(c2c1)CCNC3`, for which the IC50 in assay [1] (read-out: IC50) and in assay [2] (read-out: IC50) was greater than 10 µM each time.

For `COc1ccc2[nH]c3c(C)nccc3c2c1`, the IC50 in assay [1] (read-out: IC50) and in assay [2] (read-out: IC50) was greater than 10 µM each time.

Regarding `Cn1c2ccc(O)cc2c2cc[n+](C)cc21`, the values for the IC50 in assay [1] (read-out: IC50) and in assay [2] (read-out: IC50) were 1.8 µM and 32.2 µM, respectively.

Regarding `Cn1c2ccc(O)cc2c2ccncc21`, the concentration for half-maximal inhibition (IC50) in assay [1] (read-out: IC50) and in assay [2] (read-out: IC50) was greater than 10 µM in each case.

Turning to `COc1ccc2[nH]c3c(C)[n+](C)ccc3c2c1`, the IC50 was 0.8 µM in assay [1] (read-out: IC50), 1.2 µM in assay [2] (read-out: IC50) and 1.1 µM in assay [2] (read-out: Log IC50 (converted)).

Consider `COc1ccc2c(c1)c1ccnc(C)c1n2C`, for which the figures for the IC50 in assay [1] (read-out: IC50) and in assay [2] (read-out: IC50) were 11.8 µM and 17.4 µM, respectively.

In the case of `Cc1c2[nH]c3ccc(O)cc3c2cc[n+]1C`, the figures for the IC50 in assay [1] (read-out: IC50) and in assay [2] (read-out: IC50) were 1 µM and 1.6 µM, respectively.

As to `Oc1ccc2[nH]c3cnccc3c2c1`, the IC50 in assay [1] (read-out: IC50) and in assay [2] (read-out: IC50) was greater than 10 µM throughout.

Turning to `Cc1nccc2c1[nH]c1ccc(O)cc12`, the concentration for half-maximal inhibition (IC50) in assay [1] (read-out: IC50) and in assay [2] (read-out: IC50) was greater than 10 µM each time.

With `COc1ccc2[nH]c3c[n+](C)ccc3c2c1`, the values for the IC50 in assay [1] (read-out: IC50) and in assay [2] (read-out: IC50) were 2.2 µM and 17.5 µM, respectively.

Take `COc1ccc2c(c1)c1cc[n+](C)cc1n2C`: the IC50 in assay [1] (read-out: IC50) is 1.3 µM; in assay [1] (read-out: Log IC50 (converted)), 1.4 µM; in assay [2] (read-out: IC50), 20.9 µM.

In the case of `Cc1c2c(cc[n+]1C)c1cc(O)ccc1n2C`, the IC50 amounted to 1.9 µM in assay [1] (read-out: IC50) and 2.7 µM in assay [2] (read-out: IC50).

As to `COc1ccc2[nH]c3cnccc3c2c1`, the IC50 in assay [1] (read-out: IC50) and in assay [2] (read-out: IC50) was greater than 10 µM throughout.

For the compound `COc1ccc2[nH]c3c(c2c1)CCNC3C` (stereo not drawn) [ADRENOGLOMERULOTROPIN], the IC50 in assay [1] (read-out: IC50) and in assay [2] (read-out: IC50) was greater than 10 µM throughout.
